Measured values taken from patent US7202280B2, “Methods for the treatment and prevention of pancreatitis and for induction of liver regeneration” (priority 2002, dated 2007).

Assays:
SSAT transgenic rats = assay: Stability of the analogues in the liver of SSAT transgenic rats without or with MDL72527 (hepatic polyamine pools); type: in vivo, rat
Description: FIGS. 8A-8D. Hepatic polyamine pools in SSAT transgenic rats treated with methylated polyamine analogues without or with MDL72527. The rats were injected twice with MDL72527 (50 mg/kg i.p.) at 16-h interval. The polyamine analogues (25 mg/kg i.p.) were injected 2 and 8 h later. The animals were sacrificed 24 h after the last MDL72527 injection. There were three to four animals in each group. Put, putrescine; […] Spd, spermidine; Me-Spd, α-methylspermidine; […] The production of transgenic Wistar rats (UKUR30) and mice (UKU181) harboring metallothionein-SSAT fusion gene (Suppola, […]., Porter, C. W., and Jänne, J. (1999) Biochem. […] (2000) Proc. Natl. Acad. Sci. U.S.A. 97, 8290-8295; Lukkarinen, […]., and Alhonen, L. (1997) Stroke 28, 639-645). Partial hepatectomy was carried out according to the original method of Higgins and Anderson (Higgins, G. H., and Anderson, R. M. (1931) Arch. Pathol. 12, 186-202). Treatments before partial hepatectomy and the determination of DNA synthesis were carried out as in ([…]., Suppola, […]., and […]. Biol. Chem. 277, 39867-39872). Transgenic 10 weeks old male rats were injected twice with MDL72527 (50 mg/kg i.p.) at 16-h interval to inactivate PAO according to (Bolkenius, F. N., Bey, P., and Seiler, N. (1985) Biochim. Biophys. […] An aliquot of the homogenates was used for the polyamine assays. The homogenates were centrifuged (at 13 000×g, for 30 min, at 4° C.) and the supernatants were used for the enzyme activity assays. The Institutional Animal Care and Use Committee of the University of Kuopio and by the Provincial Government approved animal experiments. […] Merck (Darmstadt, Germany).

[1] = test system: syngenic and UKU181 transgenic mice; assay: Plasma α-amylase and ALAT in syngenic and transgenic mice after analogue injection; type: in vivo, mouse; conditions: 24 h before sacrifice
Description: (§1) α-methylspermidine, Bis-α-methylspermine and α-methylspermine were administered in saline. […] The data are expressed as means ±S.D. For statistical analysis, the two-tailed Student's t test was used.

SSAT = assay: Hepatic, pancreatic and renal SSAT activity in syngenic and metallothionein-SSAT mice after analogue; type: in vivo, mouse; conditions: 24 h before sacrifice
Description: as §1

[2] = Tg (transgenic) mice, 12.5 mg/kg
[3] = Tg (transgenic) mice, 37.5 mg/kg

For CC(N)CCNCCCCNCCCN (stereo not drawn) [α-methylspermine, 1-methylspermine], the “metabolic stability / conversion in the liver in vivo” value (SSAT transgenic rats; 25 mg/kg i.p. twice, without MDL72527) was “effectively converted to α-methylspermidine”, the “conversion to α-methylspermidine in the liver” value (SSAT transgenic rats; with MDL72527 50 mg/kg i.p. twice) was “markedly inhibited” and the “Plasma ALAT” value ([1]; Sg (syngenic) mice, 12.5 mg/kg) was 54.33 ± 4.16 U/dm^3. For the same molecule, the “Plasma α-amylase” value ([1]; Sg (syngenic) mice, 12.5 mg/kg) was 2352.00 ± 206.37 U/dm^3, the “Plasma ALAT” value ([1]; Sg (syngenic) mice, 25 mg/kg) was 43.67 ± 4.04 U/dm^3 and the “Plasma α-amylase” value ([1]; Sg (syngenic) mice, 25 mg/kg) was 2645.67 ± 161.87 ^+ U/dm^3. For the same molecule, the “Plasma ALAT” value ([1]; Sg (syngenic) mice, 37.5 mg/kg) was 47.67 ± 13.43 U/dm^3, the “Plasma α-amylase” value ([1]; Sg (syngenic) mice, 37.5 mg/kg) was 2610.67 ± 144.67 U/dm^3 and the “Plasma ALAT” value ([1]; Sg (syngenic) mice, 50 mg/kg) was 49.00 ± 2.83 U/dm^3. For the same molecule, the “Plasma α-amylase” value ([1]; Sg (syngenic) mice, 50 mg/kg) was 2512.33 ± 275.71 U/dm^3, the “Plasma ALAT” value [1, 2] was 58.67 ± 7.77 U/dm^3 and the “Plasma α-amylase” value [1, 2] was 2675.67 ± 305.64 U/dm^3. For the same molecule, the “Plasma ALAT” value ([1]; Tg (transgenic) mice, 25 mg/kg) was 44.67 ± 5.69 U/dm^3, the “Plasma α-amylase” value ([1]; Tg (transgenic) mice, 25 mg/kg) was 2044.67 ± 112.93 U/dm^3 and the “Plasma ALAT” value [1, 3] was 37.00 ± 2.83 U/dm^3. The “Plasma α-amylase” value [1, 3] was 2450.00 ± 410.12 U/dm^3, the “Plasma ALAT” value ([1]; Tg (transgenic) mice, 50 mg/kg) was 41.33 ± 3.79 U/dm^3 and the “Plasma α-amylase” value ([1]; Tg (transgenic) mice, 50 mg/kg) was 2667.00 ± 297.24 U/dm^3. For the same molecule, the “SSAT activity, Kidney” value (SSAT; Sg (syngenic) mice, 12.5 mg/kg) was 3.65 ± 2.39 ^+ pmoles/10 min/ tissue wet weight, the “SSAT activity, Liver” value (SSAT; Sg (syngenic) mice, 12.5 mg/kg) was 0.47 pmoles/10 min/ tissue wet weight and the “SSAT activity, Pancreas” value (SSAT; Sg (syngenic) mice, 12.5 mg/kg) was 2.03 pmoles/10 min/ tissue wet weight. The “SSAT activity, Kidney” value (SSAT; Sg (syngenic) mice, 25 mg/kg) was 2.76 ± 2.52 pmoles/10 min/ tissue wet weight, the “SSAT activity, Liver” value (SSAT; Sg (syngenic) mice, 25 mg/kg) was 0.26 pmoles/10 min/ tissue wet weight and the “SSAT activity, Pancreas” value (SSAT; Sg (syngenic) mice, 25 mg/kg) was 1.72 pmoles/10 min/ tissue wet weight. For the same molecule, the “SSAT activity, Kidney” value (SSAT; Sg (syngenic) mice, 37.5 mg/kg) was 4.29 ± 2.38 pmoles/10 min/ tissue wet weight, the “SSAT activity, Liver” value (SSAT; Sg (syngenic) mice, 37.5 mg/kg) was 0.75 pmoles/10 min/ tissue wet weight and the “SSAT activity, Pancreas” value (SSAT; Sg (syngenic) mice, 37.5 mg/kg) was 1.46 pmoles/10 min/ tissue wet weight. The “SSAT activity, Kidney” value (SSAT; Sg (syngenic) mice, 50 mg/kg) was 3.20 ± 2.40 pmoles/10 min/ tissue wet weight, the “SSAT activity, Liver” value (SSAT; Sg (syngenic) mice, 50 mg/kg) was 0.52 pmoles/10 min/ tissue wet weight and the “SSAT activity, Pancreas” value (SSAT; Sg (syngenic) mice, 50 mg/kg) was 2.23 pmoles/10 min/ tissue wet weight. For the same molecule, the “SSAT activity, Kidney” value (SSAT; [2]) was 5.86 ± 1.91 pmoles/10 min/ tissue wet weight, the “SSAT activity, Liver” value (SSAT; [2]) was 21.19 pmoles/10 min/ tissue wet weight and the “SSAT activity, Pancreas” value (SSAT; [2]) was 609.10 pmoles/10 min/ tissue wet weight. The “SSAT activity, Kidney” value (SSAT; Tg (transgenic) mice, 25 mg/kg) was 3.06 ± 2.23 pmoles/10 min/ tissue wet weight, the “SSAT activity, Liver” value (SSAT; Tg (transgenic) mice, 25 mg/kg) was 30.81 pmoles/10 min/ tissue wet weight and the “SSAT activity, Pancreas” value (SSAT; Tg (transgenic) mice, 25 mg/kg) was 561.36 pmoles/10 min/ tissue wet weight. The “SSAT activity, Kidney” value (SSAT; [3]) was 3.47 ± 2.52 pmoles/10 min/ tissue wet weight, the “SSAT activity, Liver” value (SSAT; [3]) was 24.88 pmoles/10 min/ tissue wet weight and the “SSAT activity, Pancreas” value (SSAT; [3]) was 543.84 pmoles/10 min/ tissue wet weight. The “SSAT activity, Kidney” value (SSAT; Tg (transgenic) mice, 50 mg/kg) was 2.95 ± 1.82 pmoles/10 min/ tissue wet weight, the “SSAT activity, Liver” value (SSAT; Tg (transgenic) mice, 50 mg/kg) was 39.44 pmoles/10 min/ tissue wet weight and the “SSAT activity, Pancreas” value (SSAT; Tg (transgenic) mice, 50 mg/kg) was 707.60 pmoles/10 min/ tissue wet weight.
